Calls of active or inactive are those of the source. No cut-off for these calls is given here.
How the values were obtained:
[1] = target: Ubiquitin carboxyl-terminal hydrolase 14 (Homo sapiens, UniProt P54578); experiment: Inhibition of USP14 (unknown origin)
[2] = target: T1, Ubiquitin carboxyl-terminal hydrolase 7 (Homo sapiens, UniProt Q93009); experiment: Inhibition of recombinant full length USP7 (unknown origin) using di-ubiquitin as substrate by fluorescence based assay
Target sequence in this assay (Q93009 whole entry): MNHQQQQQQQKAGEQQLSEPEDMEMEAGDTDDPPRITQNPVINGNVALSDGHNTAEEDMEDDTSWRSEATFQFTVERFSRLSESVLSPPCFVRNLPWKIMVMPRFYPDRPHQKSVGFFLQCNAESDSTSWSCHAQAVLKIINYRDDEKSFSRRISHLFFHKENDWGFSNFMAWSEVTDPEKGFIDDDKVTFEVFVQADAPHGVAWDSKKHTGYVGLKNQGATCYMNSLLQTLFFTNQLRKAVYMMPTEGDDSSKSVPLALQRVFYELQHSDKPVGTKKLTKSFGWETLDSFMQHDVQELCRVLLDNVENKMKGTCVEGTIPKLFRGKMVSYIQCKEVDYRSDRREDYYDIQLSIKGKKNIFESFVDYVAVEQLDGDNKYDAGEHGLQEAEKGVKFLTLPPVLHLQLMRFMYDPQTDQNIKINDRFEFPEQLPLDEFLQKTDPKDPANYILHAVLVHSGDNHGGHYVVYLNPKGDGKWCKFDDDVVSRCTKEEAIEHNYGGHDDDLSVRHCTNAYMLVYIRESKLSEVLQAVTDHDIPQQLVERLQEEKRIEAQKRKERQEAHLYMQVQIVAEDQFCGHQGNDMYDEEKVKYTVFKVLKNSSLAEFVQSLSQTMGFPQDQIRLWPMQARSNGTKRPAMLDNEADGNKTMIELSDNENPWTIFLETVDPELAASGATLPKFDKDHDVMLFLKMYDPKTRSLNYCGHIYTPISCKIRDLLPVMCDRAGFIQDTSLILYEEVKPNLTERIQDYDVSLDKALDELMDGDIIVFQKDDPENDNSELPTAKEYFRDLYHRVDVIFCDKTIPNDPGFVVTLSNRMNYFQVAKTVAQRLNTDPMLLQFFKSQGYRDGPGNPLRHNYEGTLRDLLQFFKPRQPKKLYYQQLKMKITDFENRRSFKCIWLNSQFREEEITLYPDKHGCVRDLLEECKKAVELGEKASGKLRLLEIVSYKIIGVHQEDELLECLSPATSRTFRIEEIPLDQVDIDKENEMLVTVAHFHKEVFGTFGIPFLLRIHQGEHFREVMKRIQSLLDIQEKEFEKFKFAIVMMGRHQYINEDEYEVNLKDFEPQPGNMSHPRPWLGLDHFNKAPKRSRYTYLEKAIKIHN

[3] = target: T2, Ubiquitin carboxyl-terminal hydrolase 47 (Homo sapiens, UniProt Q96K76); experiment: Inhibition of USP47 (unknown origin)
T2 sequence (Q96K76 whole entry): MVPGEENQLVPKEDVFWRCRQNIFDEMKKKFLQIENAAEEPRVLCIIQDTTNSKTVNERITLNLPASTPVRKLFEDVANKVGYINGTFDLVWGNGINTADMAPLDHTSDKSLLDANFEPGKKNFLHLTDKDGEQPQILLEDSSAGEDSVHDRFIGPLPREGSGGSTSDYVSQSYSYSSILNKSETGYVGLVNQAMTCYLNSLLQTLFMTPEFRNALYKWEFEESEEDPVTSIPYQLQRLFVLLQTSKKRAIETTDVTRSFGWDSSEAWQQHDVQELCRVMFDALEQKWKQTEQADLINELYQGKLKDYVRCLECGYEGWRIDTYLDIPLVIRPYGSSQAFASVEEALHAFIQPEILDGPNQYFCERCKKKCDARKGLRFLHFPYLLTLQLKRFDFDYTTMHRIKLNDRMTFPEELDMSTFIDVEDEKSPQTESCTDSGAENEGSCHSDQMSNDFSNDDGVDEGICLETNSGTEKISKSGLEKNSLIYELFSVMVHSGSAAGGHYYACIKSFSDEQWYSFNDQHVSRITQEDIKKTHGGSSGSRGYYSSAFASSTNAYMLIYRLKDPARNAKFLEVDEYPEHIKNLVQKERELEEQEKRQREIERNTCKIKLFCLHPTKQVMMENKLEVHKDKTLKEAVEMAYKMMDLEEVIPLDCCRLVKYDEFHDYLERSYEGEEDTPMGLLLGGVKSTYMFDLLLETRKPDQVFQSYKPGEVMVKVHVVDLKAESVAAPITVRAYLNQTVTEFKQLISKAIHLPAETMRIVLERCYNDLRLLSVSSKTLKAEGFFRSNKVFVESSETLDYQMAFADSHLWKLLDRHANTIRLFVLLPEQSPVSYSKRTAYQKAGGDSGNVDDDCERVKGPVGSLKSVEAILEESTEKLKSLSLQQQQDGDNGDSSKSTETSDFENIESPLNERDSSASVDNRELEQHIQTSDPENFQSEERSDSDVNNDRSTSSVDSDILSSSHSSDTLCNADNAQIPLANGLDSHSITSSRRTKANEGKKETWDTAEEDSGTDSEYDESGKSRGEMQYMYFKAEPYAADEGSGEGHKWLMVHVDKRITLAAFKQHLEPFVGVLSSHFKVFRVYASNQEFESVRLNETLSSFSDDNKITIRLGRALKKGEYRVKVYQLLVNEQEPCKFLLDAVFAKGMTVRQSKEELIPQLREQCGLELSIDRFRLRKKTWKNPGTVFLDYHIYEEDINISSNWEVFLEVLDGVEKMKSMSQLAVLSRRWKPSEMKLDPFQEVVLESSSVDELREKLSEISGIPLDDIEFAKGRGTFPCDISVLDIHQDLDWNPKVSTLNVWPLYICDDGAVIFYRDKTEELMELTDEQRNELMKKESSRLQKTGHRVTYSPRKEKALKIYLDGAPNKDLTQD

Homo sapiens [4] = species: Homo sapiens; experiment: Selectivity index, ratio of IC50 for USP47 (unknown origin) to IC50 for recombinant full length USP7 (unknown origin) using di-ubiquitin as substrate by fluorescence based assay
[5] = target: T3, Ubiquitin carboxyl-terminal hydrolase 1 (Homo sapiens, UniProt O94782); experiment: Inhibition of USP1 (unknown origin)
T3 sequence (O94782 whole entry): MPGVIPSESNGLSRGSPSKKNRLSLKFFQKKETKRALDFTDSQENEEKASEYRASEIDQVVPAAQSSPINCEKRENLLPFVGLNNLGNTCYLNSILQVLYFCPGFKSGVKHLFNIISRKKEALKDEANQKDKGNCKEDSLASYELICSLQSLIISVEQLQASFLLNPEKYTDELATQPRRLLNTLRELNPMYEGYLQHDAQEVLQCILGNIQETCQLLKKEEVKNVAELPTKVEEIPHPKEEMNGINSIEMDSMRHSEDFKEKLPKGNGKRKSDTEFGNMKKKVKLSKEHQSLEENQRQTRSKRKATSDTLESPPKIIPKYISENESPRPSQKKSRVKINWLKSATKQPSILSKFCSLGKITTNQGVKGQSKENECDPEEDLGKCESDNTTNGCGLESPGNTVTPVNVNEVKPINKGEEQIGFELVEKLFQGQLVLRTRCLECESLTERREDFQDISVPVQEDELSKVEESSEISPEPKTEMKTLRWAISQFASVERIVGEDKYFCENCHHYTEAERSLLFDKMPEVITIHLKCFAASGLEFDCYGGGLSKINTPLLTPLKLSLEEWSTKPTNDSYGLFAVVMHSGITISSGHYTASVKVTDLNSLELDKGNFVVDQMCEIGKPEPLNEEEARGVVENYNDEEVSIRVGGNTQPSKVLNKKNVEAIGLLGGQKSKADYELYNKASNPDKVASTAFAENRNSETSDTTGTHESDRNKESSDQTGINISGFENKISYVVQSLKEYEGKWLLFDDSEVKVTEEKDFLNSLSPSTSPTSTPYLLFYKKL

Homo sapiens [6] = species: Homo sapiens; experiment: Selectivity index, ratio of IC50 for USP1 (unknown origin) to IC50 for recombinant full length USP7 (unknown origin) using di-ubiquitin as substrate by fluorescence based assay
Homo sapiens [7] = species: Homo sapiens; experiment: Selectivity index, ratio of IC50 for USP14 (unknown origin) to IC50 for recombinant full length USP7 (unknown origin) using di-ubiquitin as substrate by fluorescence based assay
[8] = target: T1, Ubiquitin carboxyl-terminal hydrolase 7; experiment: Inhibition of recombinant human His-tagged USP7 (208 to 560 residues) expressed in Hi-five Sf9 cells using monoubiquitinated ubiquitin-rhodamine as substrate incubated for 1 hr by fluorescence based assay
Target sequence in this assay (Q93009 whole entry): as the sequence (Q93009 whole entry) above

[9] = target: T1, Ubiquitin carboxyl-terminal hydrolase 7; experiment: Allosteric binding affinity to USP7 catalytic domain (unknown origin) at His403, Gln351, Leu304, Ser353, Met328, Trp285 and Gly284 residues at 1.12 mM by NMR-15N-1H TROSY spectral titration analysis
Target sequence in this assay (Q93009 whole entry, looked up): as the sequence (Q93009 whole entry) above

[10] = target: T1, Ubiquitin carboxyl-terminal hydrolase 7; experiment: Allosteric binding affinity to USP7 catalytic domain (unknown origin) at Met328 residues by NMR-15N-1H TROSY spectral titration analysis
Target sequence in this assay (Q93009 whole entry): as the sequence (Q93009 whole entry) above

[11] = target: T1, Ubiquitin carboxyl-terminal hydrolase 7; experiment: Binding affinity to USP7 (unknown origin) by 1H-1H-NOESY experiment based analysis
Target sequence in this assay (Q93009 whole entry, looked up): as the sequence (Q93009 whole entry) above

[12] = target: T1, Ubiquitin carboxyl-terminal hydrolase 7; experiment: Allosteric binding affinity to USP7 catalytic domain (unknown origin) at Met328, Trp285, Gly284, Gln405 and Gly313 residues by NMR-15N-1H TROSY spectral titration analysis
Target sequence in this assay (Q93009 whole entry): as the sequence (Q93009 whole entry) above

[13] = target: T1, Ubiquitin carboxyl-terminal hydrolase 7; experiment: Binding affinity to USP7 (unknown origin) by 1H-NMR-STD analysis
Target sequence in this assay (Q93009 whole entry, looked up): as the sequence (Q93009 whole entry) above

[14] = target: T1, Ubiquitin carboxyl-terminal hydrolase 7; experiment: Binding affinity to USP7 (unknown origin) by T2 relaxation experiment based analysis
Target sequence in this assay (Q93009 whole entry): as the sequence (Q93009 whole entry) above

[15] = Aqueous solubility of compound; format: physicochemical; settings: water (aqueous)
[16] = target: T1, Ubiquitin carboxyl-terminal hydrolase 7; experiment: Inhibition of recombinant human C-terminal His-tagged N-terminal GST-tagged full length USP7 using di-ubiquitin as substrate preincubated for 10 mins followed by substrate addition and measured after 60 mins by TR-FRET assay
Target sequence in this assay (Q93009 whole entry): as the sequence (Q93009 whole entry) above

Chain of Ubiquitin carboxyl-terminal hydrolase 14 (P54578 whole entry): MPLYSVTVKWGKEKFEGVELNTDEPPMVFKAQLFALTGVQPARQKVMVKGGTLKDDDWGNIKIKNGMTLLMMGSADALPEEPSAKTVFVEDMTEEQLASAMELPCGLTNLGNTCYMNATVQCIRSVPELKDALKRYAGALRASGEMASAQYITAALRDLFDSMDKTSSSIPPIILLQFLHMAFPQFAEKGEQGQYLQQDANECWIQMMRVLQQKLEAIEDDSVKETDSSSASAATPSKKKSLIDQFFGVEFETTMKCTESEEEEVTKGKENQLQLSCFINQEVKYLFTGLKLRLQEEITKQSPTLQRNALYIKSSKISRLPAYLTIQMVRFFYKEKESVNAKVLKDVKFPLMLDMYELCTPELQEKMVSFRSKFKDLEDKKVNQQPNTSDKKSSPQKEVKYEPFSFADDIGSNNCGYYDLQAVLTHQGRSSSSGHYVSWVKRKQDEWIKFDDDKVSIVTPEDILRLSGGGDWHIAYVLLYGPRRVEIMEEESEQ

SMILES | IC50 [1] | IC50 [2] | IC50 [3] | Ratio IC50 (Homo sapiens [4]) | IC50 [5] | Ratio IC50 (Homo sapiens [6]) | Ratio IC50 (Homo sapiens [7]) | IC50 [8] | Activity [9] | Kd [10] | Kd [12] | Activity [13] | Kd [14] | solubility [15] | IC50 [16] | Activity [11]
Cc1ccn2c(-c3ccc(O)cc3)c(N)nc2c1 | > 100 µM | 27 µM | > 100 µM | > 2 | > 100 µM | > 2 | > 2 |  |  |  |  |  |  |  |  | 
CN(C)c1nc2ccccn2c1-c1ccc(O)cc1 | > 100 µM | 24 µM | > 100 µM | > 2 | > 100 µM | > 2 | > 2 |  |  |  |  |  |  |  |  | 
Nc1nc2cc(C(F)(F)F)ccn2c1-c1ccc(O)cc1 | > 100 µM | 42 µM | > 100 µM | > 2 | > 100 µM | > 2 | > 2 |  |  |  |  |  |  |  |  | 
O=C(C[C@@H](C(F)F)n1ccc(F)n1)N1CCC(O)(Cn2cnc3c(cnn3-c3ccc(F)cc3)c2=O)CC1 |  |  |  |  |  |  |  | 52 nM |  |  |  |  |  |  |  | 
Nc1nc2ccc(C(F)(F)F)cn2c1-c1ccc(O)cc1 | > 100 µM | 48 µM | > 100 µM | > 2 | > 100 µM | > 2 | > 2 |  |  |  |  |  |  |  |  | 
COc1ccc(-c2c(N)nc3ccccn23)cc1 | > 100 µM | 38 µM | > 100 µM | > 2 | > 100 µM | > 2 | > 2 |  |  |  |  |  |  |  |  | 
CNc1nc2ccccn2c1-c1ccc(O)cc1 | > 100 µM | 16 µM | > 100 µM | > 2 | > 100 µM | > 2 | > 2 |  |  |  |  |  |  |  |  | 
Nc1nc2cc(C3CCNCC3)ccn2c1-c1ccc(O)cc1 | > 100 µM | 5.3 µM | > 100 µM | > 2 | > 100 µM | > 2 | > 2 |  |  |  |  |  |  |  |  | 
CCc1c(-c2ccc(C(=O)NC)nc2)cnc(N)c1-c1ccc(O)cc1 |  |  |  |  |  |  |  |  |  |  |  |  |  |  | 1300 nM | 
Nc1nc2ccccn2c1-c1ccc(O)cc1 | > 100 µM | 24 µM | > 100 µM | > 2 | > 100 µM | > 2 | > 2 |  |  |  |  |  |  |  |  | 

The next lines start with results.

IC50 [1] | IC50 [2] | IC50 [3] | Ratio IC50 (Homo sapiens [4]) | IC50 [5] | Ratio IC50 (Homo sapiens [6]) | Ratio IC50 (Homo sapiens [7]) | IC50 [8] | Activity [9] | Kd [10] | Kd [12] | Activity [13] | Kd [14] | solubility [15] | IC50 [16] | SMILES | Activity [11]
> 100 µM | 8.8 µM | > 100 µM | > 2 | > 100 µM | > 2 | > 2 |  |  |  |  |  |  |  |  | Cc1cccn2c(-c3ccc(O)cc3)c(N)nc12 | 
> 100 µM | 26 µM | > 100 µM | > 2 | > 100 µM | > 2 | > 2 |  |  |  |  |  |  |  |  | Nc1nc2c(C(F)(F)F)cccn2c1-c1ccc(O)cc1 | 
> 100 µM | 34 µM | > 100 µM |  | > 100 µM |  |  |  | Active | 580 µM | 680 µM | Active | 540 µM | > 800 µM |  | CC(=O)Nc1nc2ccccn2c1-c1ccc(O)cc1 | Active
> 100 µM | 7.9 µM | > 100 µM | > 2 | > 100 µM | > 2 | > 2 |  |  |  |  |  |  |  |  | CC(C)Nc1nc2ccccn2c1-c1ccc(O)cc1 | 
> 100 µM | 39 µM | > 100 µM | > 2 | > 100 µM | > 2 | > 2 |  |  |  |  |  |  |  |  | Cc1ccc2nc(N)c(-c3ccc(O)cc3)n2c1 | 
